Among the data in patent US11008337B2, “Chiral diaryl macrocycles as modulators of protein kinases” (Turning Point Therapeutics, Inc., priority 2015, dated 2021) are IC50 and GI50 values, retold here.

Assay type in all cases: cell-based
In test [1] the test system is essential thrombocythemia cell line SET-2 cells (harboring endogenous JAK2 point mutation). The experiment in a line: Cell proliferation assay, SET-2 cells (CellTiter-Glo). The following applies: Homo sapiens, 72 hours incubation, read-out: Cell Proliferation IC50 SET2. On the procedure: (§1) Cell Proliferation Assays.
(§2) Colorectal cell lines KM 12 (harboring endogenous TPM3-TRKA fusion gene) cells were cultured in DMEM medium, supplemented with 10% fetal bovine serum and 100 U/mL of penicillin/streptomycin. 5000 cells were seeded in 384 well white plate for 24 hours before compounds treatment. Cell proliferation was measured using CellTiter-Glo luciferase-based ATP detection assay (Promega) following the manufactures's protocol after 72 hours incubation. IC50 determinations were performed using GraphPad Prism software (GraphPad, Inc., San Diego, Calif.). Alternatively, essential thrombocythemia cell line SET-2 cells (harboring endogenous JAK2 V618F point mutation) or T cell lymphoma Karpas-299 cell line (harboring endogenous NPM-ALK fusion gene) were cultured in RPMI medium, supplemented with 10% fetal bovine serum and 100 U/mL of penicillin/streptomycin. 5000 cells were seeded in 384 well white plate for 24 hours before compounds treatment. Cell proliferation was measured using CellTiter-Glo luciferase-based ATP detection assay (Promega) following the manufactures's protocol after 72 hours incubation. IC50 determinations were performed using GraphPad Prism software (GraphPad, Inc., San Diego, Calif.).
(In general: In ATP-based viability assays light output follows the ATP content of the culture.)

Test [2] concerns Colorectal cell lines KM 12 (harboring endogenous TPM3-TRKA fusion gene). The experiment in a line: Cell proliferation assay, KM12 cells (CellTiter-Glo). The conditions noted are these: Homo sapiens, 72 hours incubation. On the procedure:
as §1
as §2, with “Alternatively, essential thrombocythemia cell line SET-2 cells (harboring endogenous JAK2 V618F point mutation) or T cell lymphoma Karpas-299 cell line (harboring endogenous NPM-ALK fusion gene) were cultured in RPMI medium, supplemented with 10% fetal bovine serum and 100 U/mL of penicillin/streptomycin.” left out

Another test has as its target T1, EML4-ALK Ba/F3 (Homo sapiens, UniProt Q9UM73).
T1 construct: fused on or other part: Q9HC35 (Echinoderm microtubule-associated protein-like 4)
The experiment in a line: Cell proliferation assay, EML4-ALK Ba/F3 stable cell line (CellTiter-Glo). The following applies: Ba/F3-EML4-ALK wild type (variant 1) cells, 72 hours compound incubation; read-out: Cell Proliferation IC50 EML4-ALK Ba/F3. The source says:
(§3) Creation of CD74-ROS1 and EML4-ALK Ba/F3 Stable Cell Lines and Cell Proliferation Assays.
(§4) The CD74-ROS1 wild-type gene and EML4-ALK wild-type gene (variant 1) were synthesized at GenScript and cloned into pCDH-CMV-MCS-EF1-Puro plasmid (System Biosciences, Inc). Ba/F3-CD74-ROS1 and Ba/F3-EML4-ALK wild type cell lines were generated by infecting Ba/F3 cells with lentivirus containing CD74-ROS1 wide-type and EML4-ALK wild type. Stable cell lines were selected by puromycin treatment, followed by IL-3 withdrawal. 3000 cells were seeded in 384 well white plate overnight before compound treatment. Cell proliferation was measured using CellTiter-Glo luciferase-based ATP detection assay (Promega) following the manufactures's protocol after 72 hours of various concentration of compound incubation. IC50 determinations were performed using GraphPad Prism software (GraphPad, Inc., San Diego, Calif.).

The target of a further test is T2, CD74-ROS1 Ba/F3 (Homo sapiens, UniProt P08922).
T2 construct: fused on or other part: P04233 (HLA class II histocompatibility antigen gamma chain)
Nature of the test: Cell proliferation assay, CD74-ROS1 Ba/F3 stable cell line (CellTiter-Glo). The following applies: Ba/F3-CD74-ROS1 wild type cells, 72 hours compound incubation; read-out: Cell Proliferation IC50 CD74-ROS1 Ba/F3.
Excerpt: as §3, §4

A value given as a limit tells only on which side of the number the result lay.

T1 sequence (Q9UM73 whole entry, change not shown, the tested form may be a part): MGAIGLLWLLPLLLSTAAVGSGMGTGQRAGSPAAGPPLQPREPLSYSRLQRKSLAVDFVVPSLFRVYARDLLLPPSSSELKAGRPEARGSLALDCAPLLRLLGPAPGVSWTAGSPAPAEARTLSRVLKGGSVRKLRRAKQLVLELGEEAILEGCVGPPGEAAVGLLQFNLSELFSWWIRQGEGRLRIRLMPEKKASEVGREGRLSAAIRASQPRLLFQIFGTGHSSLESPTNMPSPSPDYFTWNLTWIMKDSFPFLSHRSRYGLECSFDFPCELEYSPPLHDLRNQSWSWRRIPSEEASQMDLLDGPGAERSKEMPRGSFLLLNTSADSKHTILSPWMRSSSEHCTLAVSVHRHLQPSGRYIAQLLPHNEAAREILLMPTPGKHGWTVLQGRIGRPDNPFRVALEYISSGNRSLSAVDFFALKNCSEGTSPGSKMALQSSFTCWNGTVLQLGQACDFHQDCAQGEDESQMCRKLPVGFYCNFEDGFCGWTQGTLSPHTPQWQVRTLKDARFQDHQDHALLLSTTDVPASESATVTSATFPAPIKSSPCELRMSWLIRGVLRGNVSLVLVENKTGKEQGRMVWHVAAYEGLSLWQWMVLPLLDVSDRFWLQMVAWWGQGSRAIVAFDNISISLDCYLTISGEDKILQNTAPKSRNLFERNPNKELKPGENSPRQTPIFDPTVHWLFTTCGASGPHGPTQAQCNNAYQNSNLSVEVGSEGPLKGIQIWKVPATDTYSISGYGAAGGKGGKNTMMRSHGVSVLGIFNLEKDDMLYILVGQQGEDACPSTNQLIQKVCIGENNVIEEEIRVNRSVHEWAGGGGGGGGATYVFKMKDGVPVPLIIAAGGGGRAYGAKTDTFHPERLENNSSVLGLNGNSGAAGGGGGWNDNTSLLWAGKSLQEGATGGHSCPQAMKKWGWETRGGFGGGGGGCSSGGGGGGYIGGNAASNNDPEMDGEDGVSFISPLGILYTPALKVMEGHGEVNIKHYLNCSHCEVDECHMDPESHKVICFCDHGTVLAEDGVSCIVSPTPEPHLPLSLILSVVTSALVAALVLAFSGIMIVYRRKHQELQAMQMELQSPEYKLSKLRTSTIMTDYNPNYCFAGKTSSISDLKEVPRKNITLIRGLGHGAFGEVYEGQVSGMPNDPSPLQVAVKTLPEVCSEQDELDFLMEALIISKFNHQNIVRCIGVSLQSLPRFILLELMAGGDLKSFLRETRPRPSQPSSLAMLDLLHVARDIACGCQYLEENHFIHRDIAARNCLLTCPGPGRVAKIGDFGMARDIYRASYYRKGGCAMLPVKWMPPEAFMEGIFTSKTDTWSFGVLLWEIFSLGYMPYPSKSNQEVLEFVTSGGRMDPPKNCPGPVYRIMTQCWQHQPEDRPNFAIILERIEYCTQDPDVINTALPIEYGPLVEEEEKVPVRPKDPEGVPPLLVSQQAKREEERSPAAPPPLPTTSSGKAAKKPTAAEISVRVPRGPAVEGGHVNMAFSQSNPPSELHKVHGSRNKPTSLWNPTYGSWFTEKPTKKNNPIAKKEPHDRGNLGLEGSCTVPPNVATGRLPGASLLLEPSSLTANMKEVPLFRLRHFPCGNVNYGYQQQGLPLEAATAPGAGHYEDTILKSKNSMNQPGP
T2 sequence (P08922 whole entry, change not shown, the tested form may be a part): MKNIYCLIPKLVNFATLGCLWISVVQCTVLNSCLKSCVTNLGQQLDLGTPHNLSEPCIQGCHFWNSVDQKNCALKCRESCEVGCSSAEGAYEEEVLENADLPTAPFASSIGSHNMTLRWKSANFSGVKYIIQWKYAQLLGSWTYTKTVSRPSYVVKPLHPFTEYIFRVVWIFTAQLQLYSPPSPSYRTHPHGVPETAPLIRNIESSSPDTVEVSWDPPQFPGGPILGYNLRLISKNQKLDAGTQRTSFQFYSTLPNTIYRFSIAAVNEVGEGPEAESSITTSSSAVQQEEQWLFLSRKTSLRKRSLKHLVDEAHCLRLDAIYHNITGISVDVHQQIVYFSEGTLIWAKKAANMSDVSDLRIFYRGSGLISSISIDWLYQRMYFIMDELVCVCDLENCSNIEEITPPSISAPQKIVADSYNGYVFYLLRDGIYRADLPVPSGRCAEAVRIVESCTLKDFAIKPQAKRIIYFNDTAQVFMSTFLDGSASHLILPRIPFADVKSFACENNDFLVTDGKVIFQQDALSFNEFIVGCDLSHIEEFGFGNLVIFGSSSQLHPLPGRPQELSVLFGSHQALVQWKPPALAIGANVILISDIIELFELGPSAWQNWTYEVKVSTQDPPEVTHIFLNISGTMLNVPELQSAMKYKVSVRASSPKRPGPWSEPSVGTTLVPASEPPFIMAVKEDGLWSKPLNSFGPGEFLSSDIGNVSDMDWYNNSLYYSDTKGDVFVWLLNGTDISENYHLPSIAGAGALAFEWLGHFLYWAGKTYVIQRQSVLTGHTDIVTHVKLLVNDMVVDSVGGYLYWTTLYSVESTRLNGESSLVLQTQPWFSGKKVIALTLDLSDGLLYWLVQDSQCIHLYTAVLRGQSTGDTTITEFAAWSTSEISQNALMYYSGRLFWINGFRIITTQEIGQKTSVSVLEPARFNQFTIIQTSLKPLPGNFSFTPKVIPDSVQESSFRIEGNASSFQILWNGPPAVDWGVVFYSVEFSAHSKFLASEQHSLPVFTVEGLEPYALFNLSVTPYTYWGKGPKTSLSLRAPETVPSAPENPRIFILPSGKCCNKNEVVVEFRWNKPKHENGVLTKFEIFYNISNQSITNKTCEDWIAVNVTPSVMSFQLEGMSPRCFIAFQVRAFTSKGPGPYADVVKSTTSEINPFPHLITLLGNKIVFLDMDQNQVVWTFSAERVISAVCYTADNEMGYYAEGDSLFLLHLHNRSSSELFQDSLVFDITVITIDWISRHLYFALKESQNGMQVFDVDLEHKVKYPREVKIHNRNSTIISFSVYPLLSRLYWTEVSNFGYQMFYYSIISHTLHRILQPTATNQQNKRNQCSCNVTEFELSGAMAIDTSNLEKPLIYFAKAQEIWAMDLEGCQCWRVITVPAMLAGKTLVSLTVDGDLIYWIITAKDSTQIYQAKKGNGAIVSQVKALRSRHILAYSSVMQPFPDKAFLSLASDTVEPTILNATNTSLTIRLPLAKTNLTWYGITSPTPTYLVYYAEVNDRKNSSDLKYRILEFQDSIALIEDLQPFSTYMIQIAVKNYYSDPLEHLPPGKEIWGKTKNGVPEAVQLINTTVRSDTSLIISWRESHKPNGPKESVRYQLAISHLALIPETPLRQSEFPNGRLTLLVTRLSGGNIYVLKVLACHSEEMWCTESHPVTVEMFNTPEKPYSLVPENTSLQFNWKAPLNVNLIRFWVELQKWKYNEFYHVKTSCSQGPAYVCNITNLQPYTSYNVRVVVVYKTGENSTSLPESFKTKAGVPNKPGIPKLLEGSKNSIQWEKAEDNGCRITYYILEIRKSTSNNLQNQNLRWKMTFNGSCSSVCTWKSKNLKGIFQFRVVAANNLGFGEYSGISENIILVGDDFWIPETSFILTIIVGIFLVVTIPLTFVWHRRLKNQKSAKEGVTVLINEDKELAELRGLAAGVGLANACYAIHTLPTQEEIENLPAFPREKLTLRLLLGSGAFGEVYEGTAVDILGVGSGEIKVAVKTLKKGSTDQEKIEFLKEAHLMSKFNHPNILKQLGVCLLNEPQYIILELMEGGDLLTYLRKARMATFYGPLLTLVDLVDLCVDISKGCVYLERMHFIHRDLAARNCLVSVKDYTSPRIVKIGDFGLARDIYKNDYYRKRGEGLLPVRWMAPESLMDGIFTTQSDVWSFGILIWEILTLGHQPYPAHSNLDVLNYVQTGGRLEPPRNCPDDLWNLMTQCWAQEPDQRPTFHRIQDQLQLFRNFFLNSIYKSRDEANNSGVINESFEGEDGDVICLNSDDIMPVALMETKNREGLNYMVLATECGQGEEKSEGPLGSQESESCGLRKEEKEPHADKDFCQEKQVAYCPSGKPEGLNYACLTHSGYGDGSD

Consider `C[C@H]1Nc2ccn3ncc(c3n2)C(=O)N[C@@H]2CCC[C@H]2Oc2ccc(F)cc21` [Compound 43, (3aR,9R,17aR)-7-fluoro-9-methyl-1,2,3,3a,9,10,17,17a-octahydro-16H-11,13-ethenocyclopenta[b]pyrazolo[4,3-f][1,4,8,10]benzoxatriazacyclotridecin-16-one], for which the IC50 in test [1] was determined as 44 nM; in test [2], 1 nM. In addition, at EML4-ALK Ba/F3, the GI50 was found to be 80 nM.

For the compound `CNC(=O)C1Nc2ccn3ncc(c3n2)C(=O)NC[C@H](C)Oc2ccc(F)cc21` (stereo partly drawn) [Compound 61, (7S)-11-fluoro-N,7-dimethyl-4-oxo-4,5,6,7,13,14-hexahydro-1,15-ethenopyrazolo[4,3-f][1,4,8,10]benzoxatriazacyclotridecine-13-carboxamide], the IC50 in test [1] is 1070 nM; in test [2], 73.7 nM. For the same compound, at EML4-ALK Ba/F3, the GI50 turned out to be 8000 nM.

As to `C[C@@H]1Nc2ccn3ncc(c3n2)C(=O)NC[C@H](C)Oc2ncc(F)cc21` [Compound 59, (7S,13S)-11-fluoro-7,13-dimethyl-6,7,13,14-tetrahydro-1,15-ethenopyrazolo[4,3-f]pyrido[3,2-l][1,4,8,10]oxatriazacyclotridecin-4(5H)-one], the IC50 is 402 nM in test [1] and 5.5 nM in test [2]. For the same compound, the GI50 on EML4-ALK Ba/F3 amounted to 2000 nM.

Take `CC[C@@H]1CNC(=O)c2cnn3ccc(nc23)N[C@H](C)c2cc(F)cnc2O1` [Compound 58, (7R,13R)-7-ethyl-11-fluoro-13-methyl-6,7,13,14-tetrahydro-1,15-ethenopyrazolo[4,3-f]pyrido[3,2-l][1,4,8,10]oxatriazacyclotridecin-4(5H)-one]: the IC50 in test [1] was 174 nM; in test [2], 0.2 nM. The GI50 at EML4-ALK Ba/F3 stood at 31 nM.

As for `C[C@H]1Nc2ccn3ncc(c3n2)C(=O)N2CCC[C@@H](C2)Oc2ccc(F)cc21` [Compound 53, (9S,15R)-13-fluoro-15-methyl-6,7,8,9,15,16-hexahydro-4H-1,17-etheno-5,9-methanopyrazolo[4,3-h][1,6,10,12]benzoxatriazacyclopentadecin-4-one], the figures for the IC50 in test [1] and in test [2] were 505 nM and 37.3 nM, respectively. The GI50 at EML4-ALK Ba/F3 is 3000 nM.

As to `C[C@H]1Nc2ccn3ncc(c3n2)C(=O)N2CCC[C@H](C2)Oc2ccc(F)cc21` [Compound 52, (9R,15R)-13-fluoro-15-methyl-6,7,8,9,15,16-hexahydro-4H-1,17-etheno-5,9-methanopyrazolo[4,3-h][1,6,10,12]benzoxatriazacyclopentadecin-4-one], the IC50 amounted to 768 nM in test [1] and 8.7 nM in test [2]. For the same compound, the GI50 on EML4-ALK Ba/F3 amounted to 1480 nM.

Regarding `C[C@H]1CNC(=O)c2cnn3ccc(nc23)N[C@H](C)c2cc(F)cnc2O1` [Compound 60, (7S,13R)-11-fluoro-7,13-dimethyl-6,7,13,14-tetrahydro-1,15-ethenopyrazolo[4,3-f]pyrido[3,2-l][1,4,8,10]oxatriazacyclotridecin-4(5H)-one], the values for the IC50 in test [1] and in test [2] were 30.3 nM and 0.35 nM, respectively. Besides, the GI50 on EML4-ALK Ba/F3 turned out to be 218 nM.

In the case of `C[C@H]1CNC(=O)c2cnn3ccc(nc23)NC(C(=O)N(C)C)c2cc(F)ccc2O1` (stereo partly drawn) [Compound 62, (7S)-11-fluoro-N,N,7-trimethyl-4-oxo-4,5,6,7,13,14-hexahydro-1,15-ethenopyrazolo[4,3-f][1,4,8,10]benzoxatriazacyclotridecine-13-carboxamide], the IC50 in test [1] worked out at 3570 nM; in test [2], 112 nM. Besides, the GI50 at EML4-ALK Ba/F3 is 3000 nM.

Turning to `C[C@H]1Nc2ccn3ncc(c3n2)C(=O)N2CCC(CC2)Oc2ccc(F)cc21` [Compound 54], the results for the IC50 in test [1] and in test [2] were > 10000 nM and 464 nM, respectively. Further, the GI50 on EML4-ALK Ba/F3 was > 10000 nM.

In the case of `C[C@H]1Nc2ccn3ncc(c3n2)C(=O)N[C@H]2CCCC[C@@H]2Oc2ccc(F)cc21` [Compound 44, (4aS,10R,18aS)-8-fluoro-10-methyl-2,3,4,4a,10,11,18,18a-octahydro-12,14-ethenodibenzo[b,l]pyrazolo[4,3-f][1,4,8,10]oxatriazacyclotridecin-17(1H)-one], the IC50 in test [1] amounted to 1800 nM; in test [2], 56 nM. At EML4-ALK Ba/F3, the GI50 came to 3000 nM.

`C[C@H]1Nc2ccn3ncc(c3n2)C(=O)N[C@H]2CCC[C@H]2Oc2ccc(F)cc21` [Compound 41, (3aR,9R,17aS)-7-fluoro-9-methyl-1,2,3,3a,9,10,17,17a-octahydro-16H-11,13-ethenocyclopenta[b]pyrazolo[4,3-f][1,4,8,10]benzoxatriazacyclotridecin-16-one]: the IC50 came out at 78.5 nM in test [1] and 3 nM in test [2]. In addition, the GI50 on EML4-ALK Ba/F3 was 150 nM.

On to `C[C@H]1Nc2ccn3ncc(c3n2)C(=O)N[C@@H]2CCCC[C@H]2Oc2ccc(F)cc21` [Compound 45, (4aR,10R,18aR)-8-fluoro-10-methyl-2,3,4,4a,10,11,18,18a-octahydro-12,14-ethenodibenzo[b,l]pyrazolo[4,3-f][1,4,8,10]oxatriazacyclotridecin-17(1H)-one], for which the IC50 was determined as 206 nM in test [1] and 0.4 nM in test [2]. Also, the GI50 at EML4-ALK Ba/F3 is > 10000 nM.

Take `C[C@H]1Nc2ccn3ncc(c3n2)C(=O)N[C@H]2CCC[C@@H]2Oc2ccc(F)cc21` [Compound 46, (3aS,9R,17aS)-7-fluoro-9-methyl-1,2,3,3a,9,10,17,17a-octahydro-16H-11,13-ethenocyclopenta[b]pyrazolo[4,3-f][1,4,8,10]benzoxatriazacyclotridecin-16-one]: the IC50 in test [1] stood at 400 nM; in test [2] it was 11 nM. The GI50 at EML4-ALK Ba/F3 came out at 2000 nM.

In the case of `O=C1NCCOc2ccc(F)cc2[C@@H](CCF)Nc2ccn3ncc1c3n2` [Compound 23, (13R)-11-fluoro-13-(2-fluoroethyl)-6,7,13,14-tetrahydro-1,15-ethenopyrazolo[4,3-f][1,4,8,10]benzoxatriazacyclotridecin-4(5H)-one], the IC50 in test [1] was 236 nM; in test [2], 1.3 nM. Further, the figures for the GI50 on EML4-ALK Ba/F3 and on CD74-ROS1 Ba/F3 were 459 nM and 5.1 nM, respectively.

Take `C[C@H]1Nc2ccn3ncc(c3n2)C(=O)NC[C@@H](CN2CCCC2)Oc2ccc(F)cc21` [Compound 57, (7S,13R)-11-fluoro-13-methyl-7-[(pyrrolidin-1-yl)methyl]-6,7,13,14-tetrahydro-1,15-ethenopyrazolo[4,3-f][1,4,8,10]benzoxatriazacyclotridecin-4(5H)-one]: the IC50 in test [1] was 132 nM; in test [2], 70 nM. Besides, the GI50 at EML4-ALK Ba/F3 amounted to 665 nM.

For `C[C@H]1Nc2ccn3ncc(c3n2)C(=O)NC[C@@H](CN(C)C)Oc2ccc(F)cc21` [Compound 55, (7S,13R)-7-[(dimethylamino)methyl]-11-fluoro-13-methyl-6,7,13,14-tetrahydro-1,15-ethenopyrazolo[4,3-f][1,4,8,10]benzoxatriazacyclotridecin-4(5H)-one], the IC50 in test [1] was 300 nM; in test [2], 23.5 nM. The GI50 at EML4-ALK Ba/F3 was 709 nM.

With `C[C@H]1Nc2ccn3ncc(c3n2)C(=O)N[C@H]2CNC[C@H]2Oc2ccc(F)cc21` [Compound 48, (3aR,9R,17aS)-7-fluoro-9-methyl-1,2,3,3a,9,10,17,17a-octahydro-16H-11,13-ethenopyrazolo[4,3-f]pyrrolo[3,4-b][1,4,8,10]benzoxatriazacyclotridecin-16-one], the IC50 in test [1] and in test [2] was > 10000 nM in each case. Also, at EML4-ALK Ba/F3, the GI50 came out at 5000 nM.

Take `C[C@H]1Nc2ccn3ncc(c3n2)C(=O)N[C@@H]2CCCC[C@@H]2Oc2ccc(F)cc21` [Compound 47, (4aS,10R,18aR)-8-fluoro-10-methyl-2,3,4,4a,10,11,18,18a-octahydro-12,14-ethenodibenzo[b,l]pyrazolo[4,3-f][1,4,8,10]oxatriazacyclotridecin-17(1H)-one]: the figures for the IC50 in test [1] and in test [2] were 127 nM and 6 nM, respectively. For the same compound, on EML4-ALK Ba/F3, the GI50 was 504 nM.
